Measurements: PubChem BioAssay AID248 (DTP/NCI, 2004)
Where “and” joins values, the source holds several entries; their conditions need not be identical. Identical values can stand only once. Inconclusive results and toxic doses are left out. Rule as the data show it: active = T/C of 150% or more; inactive = T/C below 125%.

Test system: L1210 leukemia ip in BDF1 mice, survival T/C
Experiment: NCI In Vivo Anticancer Drug Screen. Data for tumor model L1210 Leukemia (intraperitoneal) in B6D2F1 (BDF1) mice
Conditions: endpoint: mean survival time, higher = longer survival
Summary of the method: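 Tumor was transplanted into mice, which were then dosed with test compound or vehicle alone. Survival was recorded for each group, and the treated figure was expressed relative to the control figure.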

[1] = dose: 100.0 mg/kg/injection, schedule: Q04DX003 (ip), vehicle: saline with Tween-80
[2] = dose: 200.0 mg/kg/injection, schedule: Q04DX003 (ip), vehicle: saline with Tween-80
[3] = dose: 400.0 mg/kg/injection, schedule: Q04DX003 (ip), vehicle: saline with Tween-80
[4] = dose: 100.0 mg/kg/injection, schedule: Q04DX002 (ip), vehicle: Klucel (hydroxypropylcellulose) (HPC)
[5] = dose: 200.0 mg/kg/injection, schedule: Q04DX002 (ip), vehicle: Klucel (hydroxypropylcellulose) (HPC)
[6] = dose: 400.0 mg/kg/injection, schedule: Q04DX002 (ip), vehicle: Klucel (hydroxypropylcellulose) (HPC)
[7] = dose: 100.0 mg/kg/injection, schedule: Q01DX009 (ip), vehicle: Klucel (hydroxypropylcellulose) (HPC)
[8] = dose: 100.0 mg/kg/injection, schedule: Q04DX003 (ip), vehicle: Klucel (hydroxypropylcellulose) (HPC)
[9] = dose: 200.0 mg/kg/injection, schedule: Q01DX009 (ip), vehicle: Klucel (hydroxypropylcellulose) (HPC)
[10] = dose: 200.0 mg/kg/injection, schedule: Q04DX003 (ip), vehicle: Klucel (hydroxypropylcellulose) (HPC)
[11] = dose: 400.0 mg/kg/injection, schedule: Q01DX009 (ip), vehicle: Klucel (hydroxypropylcellulose) (HPC)
[12] = dose: 400.0 mg/kg/injection, schedule: Q04DX003 (ip), vehicle: Klucel (hydroxypropylcellulose) (HPC)
[13] = dose: 25.0 mg/kg/injection, schedule: Q04DX003 (ip), vehicle: saline
[14] = dose: 50.0 mg/kg/injection, schedule: Q04DX003 (ip), vehicle: saline
[15] = dose: 100.0 mg/kg/injection, schedule: Q01DX009 (ip), vehicle: saline with Tween-80
[16] = dose: 200.0 mg/kg/injection, schedule: Q01DX009 (ip), vehicle: saline with Tween-80
[17] = dose: 100.0 mg/kg/injection, schedule: Q01DX001 (ip), vehicle: saline
[18] = dose: 200.0 mg/kg/injection, schedule: Q01DX001 (ip), vehicle: saline
[19] = dose: 400.0 mg/kg/injection, schedule: Q01DX001 (ip), vehicle: saline
[20] = dose: 400.0 mg/kg/injection, schedule: Q01DX009 (ip), vehicle: saline with Tween-80
[21] = dose: 100.0 mg/kg/injection, schedule: Q01DX001 (ip), vehicle: carboxymethylcellulose (CMC)

Measured: T/C

C/C(C/C=N/N=C(N)N)=N\N=C(N)N
inactive: dose: 15.0 mg/kg/injection, schedule: Q01DX Z (ip), vehicle: water 98 % of control | dose: 30.0 mg/kg/injection, schedule: Q01DX Z (ip), vehicle: water 96 % of control | dose: 60.0 mg/kg/injection, schedule: Q01DX Z (ip), vehicle: water 102 % of control | dose: 120.0 mg/kg/injection, schedule: Q01DX Z (ip), vehicle: water 102 % of control | dose: 120.0 mg/kg/injection, schedule: Q01DX Z (oral), vehicle: water 103 % of control | dose: 240.0 mg/kg/injection, schedule: Q01DX Z (oral), vehicle: water 100 % of control | dose: 480.0 mg/kg/injection, schedule: Q01DX Z (oral), vehicle: water 108 % of control | dose: 960.0 mg/kg/injection, schedule: Q01DX Z (oral), vehicle: water 102 % of control

COC(=O)C1C2CC(Br)C(Br)CC21 (configuration not stated)
inactive: [1] 94 % of control | [2] 94 % of control | [3] 94 % of control

COc1cc(Oc2c(OC)cc(C(C)=O)cc2OC)cc(OC)c1OC
inactive: [1] 101 % of control | [2] 97 % of control | [3] 97 % of control

Cc1cccc(NC(=O)Nc2ccccc2Cl)n1
inactive: [4] 87 % of control | [5] 87 % of control | [6] 90 % of control

O=C(COc1ccc(Cl)cc1Cl)NO
inactive: [7] 104 % of control | [8] 102 % of control | [9] 109 % of control | [10] 104 % of control | [11] 101 % of control | [12] 106 % of control

CC(=O)C[P+](c1ccccc1)(c1ccccc1)c1ccccc1
inactive: dose: 12.0 mg/kg/injection, schedule: Q01DX009 (ip), vehicle: saline 96 % of control | dose: 12.0 mg/kg/injection, schedule: Q04DX003 (ip), vehicle: saline 104 % of control | dose: 25.0 mg/kg/injection, schedule: Q01DX009 (ip), vehicle: saline 96 % of control | [13] 94 % of control | dose: 50.0 mg/kg/injection, schedule: Q01DX009 (ip), vehicle: saline 112 % of control | [14] 98 % of control

CC(C)[Si](F)(c1ccc(Br)cc1)C(C)C
inactive: [15] 103 % of control | [16] 95 % of control

Cc1ccc(C(=O)C=Nc2ccc(O)cc2)cc1
inactive: dose: 12.5 mg/kg/injection, schedule: Q04DX002 (ip), vehicle: Klucel (hydroxypropylcellulose) (HPC) 94 % of control | dose: 25.0 mg/kg/injection, schedule: Q04DX002 (ip), vehicle: Klucel (hydroxypropylcellulose) (HPC) 97 % of control | dose: 50.0 mg/kg/injection, schedule: Q04DX002 (ip), vehicle: Klucel (hydroxypropylcellulose) (HPC) 102 % of control

CCCOC(=O)COc1ccccc1
inactive: [1] 96 % of control | [2] 96 % of control | [3] 93 % of control

O=C1C(=O)c2ccccc2-c2ccccc21.O=C1C(=O)c2ccccc2-c2ccccc21.[Hg]
inactive: dose: 6.25 mg/kg/injection, schedule: Q04DX003 (ip), vehicle: saline with Tween-80 95 % of control

CC(=O)Nc1ccc(NS(=O)(=O)O)cc1
inactive: dose: 50.0 mg/kg/injection, schedule: Q01DX001 (ip), vehicle: saline 96 % of control | [17] 96 % of control | [18] 93 % of control | [19] 96 % of control

CCc1c(C)nc2[nH]ncn2c1=O
inactive: dose: 75.0 mg/kg/injection, schedule: Q01DX001 (ip), vehicle: other 96 % of control | dose: 150.0 mg/kg/injection, schedule: Q01DX001 (ip), vehicle: other 97 % of control | dose: 300.0 mg/kg/injection, schedule: Q01DX001 (ip), vehicle: other 93 % of control

CC1(C)NC(=O)NC(=O)C1Br (configuration not stated)
inactive: dose: 100.0 mg/kg/injection, schedule: Q01DX Z (ip), vehicle: methylcellulose (MC) 96 % of control

CC(C)CN1CCC(=O)NC1=O
inactive: dose: 100.0 mg/kg/injection, schedule: Q01DX Z (ip), vehicle: saline 100 % of control | dose: 200.0 mg/kg/injection, schedule: Q01DX Z (ip), vehicle: saline 94 % of control

O=c1c(Br)cc(Cl)nc2c(Br)cc(Br)cc12
inactive: dose: 12.0 mg/kg/injection, schedule: Q01DX009 (ip), vehicle: Klucel (hydroxypropylcellulose) (HPC) 103 % of control | dose: 25.0 mg/kg/injection, schedule: Q01DX009 (ip), vehicle: Klucel (hydroxypropylcellulose) (HPC) 103 % of control | dose: 25.0 mg/kg/injection, schedule: Q04DX003 (ip), vehicle: Klucel (hydroxypropylcellulose) (HPC) 102 % of control | dose: 50.0 mg/kg/injection, schedule: Q01DX009 (ip), vehicle: Klucel (hydroxypropylcellulose) (HPC) 96 % of control and 89 % of control | dose: 50.0 mg/kg/injection, schedule: Q04DX003 (ip), vehicle: Klucel (hydroxypropylcellulose) (HPC) 98 % of control | [8] 93 % of control and 91 % of control

CCOP(=O)(CI)Oc1ccc([N+](=O)[O-])cc1 (configuration not stated)
inactive: dose: 0.5 mg/kg/injection, schedule: Q01DX001 (ip), vehicle: saline 100 % of control | dose: 1.0 mg/kg/injection, schedule: Q01DX001 (ip), vehicle: saline 102 % of control | dose: 2.0 mg/kg/injection, schedule: Q01DX001 (ip), vehicle: saline 100 % of control

Cc1cn(C2OC(CO)C(O)C(O)C2O)c(=O)[nH]c1=O (configuration not stated)
inactive: [17] 97 % of control | [18] 97 % of control | [19] 94 % of control

O=C1CCN2CCC(=O)c3c(Cl)ccc1c32
inactive: dose: 100.0 mg/kg/injection, schedule: Q01DX001 (ip), vehicle: other 100 % of control | dose: 200.0 mg/kg/injection, schedule: Q01DX001 (ip), vehicle: other 97 % of control | dose: 400.0 mg/kg/injection, schedule: Q01DX001 (ip), vehicle: other 100 % of control

O=C(/C=C/c1ccccc1)Nc1ccc2ccccc2c1
inactive: [15] 107 % of control and 108 % of control | dose: 100.0 mg/kg/injection, schedule: Q04DX002 (ip), vehicle: saline with Tween-80 102 % of control and 114 % of control | [1] 92 % of control | [16] 96 % of control and 108 % of control | dose: 200.0 mg/kg/injection, schedule: Q04DX002 (ip), vehicle: saline with Tween-80 96 % of control and 102 % of control | [2] 100 % of control | [20] 94 % of control and 101 % of control | dose: 400.0 mg/kg/injection, schedule: Q04DX002 (ip), vehicle: saline with Tween-80 93 % of control and 107 % of control | [3] 101 % of control

COc1ccc([N+](=O)[O-])cc1NC(=O)N1CCCCC1C (configuration not stated)
inactive: dose: 100.0 mg/kg/injection, schedule: Q01DX001 (ip), vehicle: Klucel (hydroxypropylcellulose) (HPC) 101 % of control | [7] 98 % of control and 102 % of control | [4] 97 % of control and 103 % of control | [8] 106 % of control | dose: 200.0 mg/kg/injection, schedule: Q01DX001 (ip), vehicle: Klucel (hydroxypropylcellulose) (HPC) 102 % of control | [9] 98 % of control and 106 % of control | [5] 94 % of control and 105 % of control | [10] 99 % of control | dose: 400.0 mg/kg/injection, schedule: Q01DX001 (ip), vehicle: Klucel (hydroxypropylcellulose) (HPC) 96 % of control | [11] 95 % of control and 96 % of control | [6] 94 % of control and 110 % of control | [12] 91 % of control

CCOc1ccccc1/C=N\NC(=O)c1ccco1
inactive: [21] 106 % of control | dose: 200.0 mg/kg/injection, schedule: Q01DX001 (ip), vehicle: carboxymethylcellulose (CMC) 95 % of control | dose: 400.0 mg/kg/injection, schedule: Q01DX001 (ip), vehicle: carboxymethylcellulose (CMC) 104 % of control

O=C(NC(=O)C1CC1)C1CC1
inactive: [15] 94 % of control | [1] 106 % of control | [16] 100 % of control | [2] 87 % of control | [20] 100 % of control | [3] 93 % of control

Cc1cccc(SC(=O)Cc2ccc([N+](=O)[O-])cc2)c1
inactive: [15] 91 % of control | [1] 109 % of control | [16] 96 % of control | [2] 102 % of control | [3] 119 % of control

CS(=O)(=O)OCCBr
inactive: dose: 12.5 mg/kg/injection, schedule: Q04DX003 (ip), vehicle: saline 88 % of control | [13] 90 % of control | [14] 87 % of control | [21] 103 % of control
